Measurements from patent publication US8329950B2, “Process for preparation of trans 4-(3,4-Dichlorophenyl)-1,2,3,4-tetrahydro-1Napthalenamine” (Sunovion Pharmaceuticals Inc., priority 2005, dated 2012).
Values joined by “and” are separate entries in the source; they are usually repeats but may differ in a detail not shown here. Equal values may be shown once.

Key:
[1] = target: T1, functional uptake of dopamine (DA) (Rattus norvegicus, UniProt P23977); assay: Dopamine functional uptake assay in rat striatum synaptosomes; format: biochemical; settings: for inhibition of DA uptake: tested initially at 10 μM
T1 construct: synaptosomes isolated at Cerep in a 0.32 M sucrose buffer from a male Wistar rat striatum; tissue Cerep; host or cells: male Wistar rat striatum synaptosomes
Method: Characterization of dopamine uptake is performed using synaptosomes isolated at Cerep in a 0.32 M sucrose buffer from a male Wistar rat striatum. The uptake of radiolabelled dopamine by synaptosomes (20 μg of proteins/point) is allowed by incubating them in a deep well for 15 minutes at 37° C. in presence of test compounds and [^3H]-dopamine (0.1 μCi/point).
Synaptosomes and [^3H]-dopamine are prepared in a Krebs buffer pH 7.4 containing 25 mM NaHCO3, 11 mM glucose and 50 μM ascorbic acid. This incubation buffer is oxygenated during 5 minutes before incubation. Basal control is incubated for 15 minutes at 4° C. in order to avoid any uptake. Following this incubation the uptake is stopped by filtration through an “unifilter 96-wells GFB “Packard plate washed with Krebs buffer containing 25 mM NaHCO3 in order to eliminate the free [^3H]-dopamine. The radioactivity associated to the synaptosomes retained onto the unifilter corresponding to the uptake is then measured with a microplate scintillation counter Topcount, Packard using a scintillation liquid microscint 0, Packard.

[2] = target: T2, functional uptake of norepinephrine (NE) (Rattus norvegicus, UniProt Q63380); assay: biochemical
T2 construct: synaptosomes isolated at Cerep in a 0.32 M sucrose buffer from a male Wistar rat hypothalamus; tissue Cerep; host or cells: male Wistar rat hypothalamus synaptosomes
Method: Characterization of norepinephrine uptake is performed using synaptosomes isolated at Cerep in a 0.32 M sucrose buffer from a male Wistar rat hypothalamus. The uptake of radiolabeled norepinephrine by synaptosomes (100 μg of proteins/point) is allowed by incubating them in a deep well for 20 minutes at 37° C. in presence of test compounds and [^3H]-norepinephrine (0.1 μCi/point).
Synaptosomes and [^3H]-norepinephrine are prepared in a Krebs buffer pH 7.4 containing 25 mM NaHCO3, 11 mM glucose and 50 μM ascorbic acid. This incubation buffer is oxygenated during 5 minutes before incubation. Basal control is incubated for 20 minutes at 4° C. in order to avoid any uptake. Following this incubation the uptake is stopped by filtration through an “unifilter 96-wells GFB “Packard plate washed with Krebs buffer containing 25 mM NaHCO3 in order to eliminate the free [^3H]-norepinephrine. The radioactivity associated to the synaptosomes retained onto the unifilter corresponding to the uptake is then measured with a microplate scintillation counter Topcount, Packard using a scintillation liquid microscint 0, Packard.

[3] = system: women with insomnia secondary to perimenopause or menopause; assay: Clinical study, number of nocturnal awakenings due to hot flashes; format: in vivo, human; settings: 3 mg nightly, Intent-to-Treat; for Nocturnal Awakenings due to Hot Flashes, Change from Baseline, Least Squares Means (SE): ANCOVA; for Nocturnal Awakenings due to Hot Flashes, Observed Value, Least Squares Means (SE): ANOVA
Method: (§1) The study was aimed at observing efficacy of eszopiclone 3 mg compared to placebo in the treatment of insomnia secondary to perimenopause or menopause.
(§2) The study was a multicenter, randomized, double-blind, placebo-controlled, parallel-group study. […] The primary method of analysis compared the post-randomization results between the two treatment groups.
(§3) Subjects were women with insomnia secondary to perimenopause or menopause. Subjects were perimenopausal or menopausal and had insomnia symptoms including ≧45 minutes sleep latency (SL) and total sleep time (TST)≦6 hours. Perimenopausal/menopausal symptoms predated the onset of sleep disturbance symptoms. The patient population was predominately Caucasian (77.2%). The mean age was 49, with a range of 40-60.
(§4) A total of 410 subjects were randomized. Among them, 201 received 3 mg of eszopiclone (ESZ) nightly (at bedtime) for four weeks and 209 received matching placebo (PBO).

[4] = system: women with insomnia secondary to perimenopause or menopause; assay: Clinical study, Physician Global Assessment; format: in vivo, human; settings: Visit 5 (Week 4), 3 mg nightly; for Physician Global Assessment, Observed Value, Least Squares Means (SE): ANOVA
Method: as §1, §2, §3, §4
A Physician Global Assessment was administered at Week 4, the end of the double-blind treatment period.

[5] = target: T3, functional uptake of serotonin (5-HT) (Rattus norvegicus, UniProt P31652); assay: Serotonin functional uptake assay in rat synaptosomes; format: biochemical; settings: Table 6; tested initially at 10 μM
T3 construct: synaptosomes isolated in a 0.32 M sucrose buffer from a male Wistar rat cortex; from tissue; host or cells: male Wistar rat cortex (whole brain) synaptosomes
Method: Characterization of serotonin uptake is performed using synaptosomes isolated in a 0.32 M sucrose buffer from a male Wistar rat cortex. The uptake of radiolabelled serotonin by synaptosomes (100 μg of proteins/point) is allowed by incubating them in a deep well for 15 minutes at 37° C. in presence of test compounds and [3H]5-hydroxytryptamin (0.1 μCi/point).
Synaptosomes and [^3H]5-hydroxytryptamine are prepared in a Krebs buffer pH 7.4 containing 25 mM NaHCO3, 11 mM glucose and 50 μM ascorbic acid. This incubation buffer is oxygenated during 5 minutes before incubation. Basal control is incubated for 15 minutes at 4° C. in order to avoid any uptake. Following this incubation the uptake is stopped by filtration through an “unifilter 96-wells GFB “Packard plate washed with Krebs buffer containing 25 mM NaHCO3 in order to eliminate the free [^3H]5-hydroxytryptamine. The radioactivity associated to the synaptosomes retained onto the unifilter corresponding to the uptake is then measured with a microplate scintillation counter Topcount, Packard using a scintillation liquid microscint 0, Packard.

mice = assay: Behavioral Despair Test (Porsolt swim test) in mice; format: in vivo; settings: for Immobility Duration, Mean: N = 10
[6] = score 1 = Very much improved to 7 = Very much worse

T1 sequence (P23977 whole entry): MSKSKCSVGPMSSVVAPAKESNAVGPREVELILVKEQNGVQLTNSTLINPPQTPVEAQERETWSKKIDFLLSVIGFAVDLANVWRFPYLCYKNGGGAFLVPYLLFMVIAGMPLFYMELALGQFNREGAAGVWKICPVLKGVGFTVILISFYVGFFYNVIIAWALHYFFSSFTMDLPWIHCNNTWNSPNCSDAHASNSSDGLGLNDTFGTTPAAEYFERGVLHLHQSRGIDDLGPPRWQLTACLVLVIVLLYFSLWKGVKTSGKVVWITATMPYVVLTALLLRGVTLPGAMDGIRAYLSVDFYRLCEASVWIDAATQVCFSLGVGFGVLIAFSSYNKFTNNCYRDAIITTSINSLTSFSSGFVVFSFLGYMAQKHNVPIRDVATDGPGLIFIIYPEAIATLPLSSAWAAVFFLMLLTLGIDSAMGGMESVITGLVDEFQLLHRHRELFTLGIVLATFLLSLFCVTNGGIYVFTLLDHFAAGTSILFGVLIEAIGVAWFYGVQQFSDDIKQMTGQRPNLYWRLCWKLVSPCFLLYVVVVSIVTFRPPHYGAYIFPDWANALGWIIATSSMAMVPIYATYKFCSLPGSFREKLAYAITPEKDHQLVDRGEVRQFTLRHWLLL
T2 sequence (Q63380 1-617): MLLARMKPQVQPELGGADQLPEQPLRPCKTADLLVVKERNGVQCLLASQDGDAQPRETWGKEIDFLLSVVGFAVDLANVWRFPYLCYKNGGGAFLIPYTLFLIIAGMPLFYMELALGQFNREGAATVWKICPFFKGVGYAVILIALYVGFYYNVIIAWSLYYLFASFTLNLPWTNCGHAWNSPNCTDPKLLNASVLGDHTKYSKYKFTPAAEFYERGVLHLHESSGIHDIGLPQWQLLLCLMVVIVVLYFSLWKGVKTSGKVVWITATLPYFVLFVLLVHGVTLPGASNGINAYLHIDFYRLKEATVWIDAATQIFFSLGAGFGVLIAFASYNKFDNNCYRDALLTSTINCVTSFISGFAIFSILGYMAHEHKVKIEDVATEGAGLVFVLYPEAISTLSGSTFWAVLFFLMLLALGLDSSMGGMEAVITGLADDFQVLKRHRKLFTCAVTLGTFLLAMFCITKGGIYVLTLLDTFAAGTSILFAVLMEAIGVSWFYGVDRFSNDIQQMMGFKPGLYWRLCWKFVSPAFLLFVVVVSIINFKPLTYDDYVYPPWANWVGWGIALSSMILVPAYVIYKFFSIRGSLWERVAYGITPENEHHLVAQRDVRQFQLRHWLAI
T3 sequence (P31652 whole entry): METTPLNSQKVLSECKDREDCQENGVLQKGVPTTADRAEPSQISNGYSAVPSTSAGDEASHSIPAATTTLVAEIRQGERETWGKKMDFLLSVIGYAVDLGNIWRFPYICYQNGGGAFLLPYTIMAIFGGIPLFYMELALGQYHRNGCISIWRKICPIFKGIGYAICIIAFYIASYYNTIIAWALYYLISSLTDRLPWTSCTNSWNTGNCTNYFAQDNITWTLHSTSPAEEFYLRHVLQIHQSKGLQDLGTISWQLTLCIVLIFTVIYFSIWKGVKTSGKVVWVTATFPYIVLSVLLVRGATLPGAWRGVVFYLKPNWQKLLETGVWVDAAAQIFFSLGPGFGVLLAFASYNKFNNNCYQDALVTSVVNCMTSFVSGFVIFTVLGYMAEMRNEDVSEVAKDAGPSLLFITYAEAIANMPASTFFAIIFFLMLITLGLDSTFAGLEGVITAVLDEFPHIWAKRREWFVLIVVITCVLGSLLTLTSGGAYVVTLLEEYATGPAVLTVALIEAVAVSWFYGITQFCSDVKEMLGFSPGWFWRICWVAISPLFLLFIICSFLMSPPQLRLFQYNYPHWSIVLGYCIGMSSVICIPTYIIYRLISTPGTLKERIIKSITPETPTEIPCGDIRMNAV

N[C@@H]1CC[C@@H](c2ccc(Cl)c(Cl)c2)c2ccccc21 (relative stereo) [P + Q, trans 4-(3,4-dichlorophenyl)-1,2,3,4-tetrahydro-1-napthalenamine]
IC50 ([1]; Table 6, rat synaptosomes): 7.1 nM
IC50 ([2]; Table 6, rat synaptosomes): 8.8 nM

CN1CCN(C(=O)O[C@H]2c3nccnc3C(=O)N2c2ccc(Cl)cn2)CC1 [Eszopiclone, (+) 6-(5-chloropyrid-2-yl)-5-(4-methylpiperazin-1-yl)carbonyloxy-7-oxo-6,7-dihydro-5H-pyrrolo[3-4-b]pyrazine]
Nocturnal Awakenings due to Hot Flashes, Change from Baseline, 25th Percentile ([3]; DB Average): −1.1
Nocturnal Awakenings due to Hot Flashes, Change from Baseline, 75th Percentile ([3]; DB Average): 0.0
Nocturnal Awakenings due to Hot Flashes, Change from Baseline, Maximum ([3]; DB Average): 1.5
Nocturnal Awakenings due to Hot Flashes, Change from Baseline, Mean (SD) ([3]; DB Average): −0.7 (1.0)
Nocturnal Awakenings due to Hot Flashes, Change from Baseline, Median ([3]; DB Average): −0.5
Nocturnal Awakenings due to Hot Flashes, Change from Baseline, Minimum ([3]; DB Average): −6.0
Nocturnal Awakenings due to Hot Flashes, Observed Value, 25th Percentile ([3]; DB Average): 0.0
Nocturnal Awakenings due to Hot Flashes, Observed Value, 75th Percentile ([3]; DB Average): 0.9
Nocturnal Awakenings due to Hot Flashes, Observed Value, Maximum ([3]; DB Average): 2.7
Nocturnal Awakenings due to Hot Flashes, Observed Value, Mean (SD) ([3]; DB Average): 0.5 (0.6)
Nocturnal Awakenings due to Hot Flashes, Observed Value, Median ([3]; DB Average): 0.2
Nocturnal Awakenings due to Hot Flashes, Observed Value, Minimum ([3]; DB Average): 0.0
Nocturnal Awakenings due to Hot Flashes, Change from Baseline, Least Squares Means (SE) ([3]; DB Average): −0.7 (0.1)
Nocturnal Awakenings due to Hot Flashes, Observed Value, Least Squares Means (SE) ([3]; DB Average): 0.5 (0.1)
Nocturnal Awakenings due to Hot Flashes, Change from Baseline, 25th Percentile ([3]; Week 1): −1.2
Nocturnal Awakenings due to Hot Flashes, Change from Baseline, 75th Percentile ([3]; Week 1): 0.0
Nocturnal Awakenings due to Hot Flashes, Change from Baseline, Maximum ([3]; Week 1): 0.8
Nocturnal Awakenings due to Hot Flashes, Change from Baseline, Mean (SD) ([3]; Week 1): −0.7 (1.0)
Nocturnal Awakenings due to Hot Flashes, Change from Baseline, Median ([3]; Week 1): −0.5
Nocturnal Awakenings due to Hot Flashes, Change from Baseline, Minimum ([3]; Week 1): −6.0
Nocturnal Awakenings due to Hot Flashes, Observed Value, 25th Percentile ([3]; Week 1): 0.0
Nocturnal Awakenings due to Hot Flashes, Observed Value, 75th Percentile ([3]; Week 1): 1.0
Nocturnal Awakenings due to Hot Flashes, Observed Value, Maximum ([3]; Week 1): 3.0
Nocturnal Awakenings due to Hot Flashes, Observed Value, Mean (SD) ([3]; Week 1): 0.5 (0.7)
Nocturnal Awakenings due to Hot Flashes, Observed Value, Median ([3]; Week 1): 0.2
Nocturnal Awakenings due to Hot Flashes, Observed Value, Minimum ([3]; Week 1): 0.0
Nocturnal Awakenings due to Hot Flashes, Change from Baseline, Least Squares Means (SE) ([3]; Week 1): −0.7 (0.1)
Nocturnal Awakenings due to Hot Flashes, Observed Value, Least Squares Means (SE) ([3]; Week 1): 0.5 (0.1)
Nocturnal Awakenings due to Hot Flashes, Observed Value, Least Squares Means (SE) ([3]; Week 1, listed as ESZ): 0.3
Nocturnal Awakenings due to Hot Flashes, Change from Baseline, 25th Percentile ([3]; Week 2): −1.0
Nocturnal Awakenings due to Hot Flashes, Change from Baseline, 75th Percentile ([3]; Week 2): 0.0
Nocturnal Awakenings due to Hot Flashes, Change from Baseline, Maximum ([3]; Week 2): 2.0
Nocturnal Awakenings due to Hot Flashes, Change from Baseline, Mean (SD) ([3]; Week 2): −0.7 (1.0)
Nocturnal Awakenings due to Hot Flashes, Change from Baseline, Median ([3]; Week 2): −0.6
Nocturnal Awakenings due to Hot Flashes, Change from Baseline, Minimum ([3]; Week 2): −6.0
Nocturnal Awakenings due to Hot Flashes, Observed Value, 25th Percentile ([3]; Week 2): 0.0
Nocturnal Awakenings due to Hot Flashes, Observed Value, 75th Percentile ([3]; Week 2): 1.0
Nocturnal Awakenings due to Hot Flashes, Observed Value, Maximum ([3]; Week 2): 3.0
Nocturnal Awakenings due to Hot Flashes, Observed Value, Mean (SD) ([3]; Week 2): 0.5 (0.7)
Nocturnal Awakenings due to Hot Flashes, Observed Value, Median ([3]; Week 2): 0.0
Nocturnal Awakenings due to Hot Flashes, Observed Value, Minimum ([3]; Week 2): 0.0
Nocturnal Awakenings due to Hot Flashes, Change from Baseline, Least Squares Means (SE) ([3]; Week 2): −0.6 (0.1)
Nocturnal Awakenings due to Hot Flashes, Observed Value, Least Squares Means (SE) ([3]; Week 2): 0.5 (0.1)
Nocturnal Awakenings due to Hot Flashes, Change from Baseline, 25th Percentile ([3]; Week 3): −1.0
Nocturnal Awakenings due to Hot Flashes, Change from Baseline, 75th Percentile ([3]; Week 3): 0.0
Nocturnal Awakenings due to Hot Flashes, Change from Baseline, Maximum ([3]; Week 3): 1.5
Nocturnal Awakenings due to Hot Flashes, Change from Baseline, Mean (SD) ([3]; Week 3): −0.7 (1.1)
Nocturnal Awakenings due to Hot Flashes, Change from Baseline, Median ([3]; Week 3): −0.4
Nocturnal Awakenings due to Hot Flashes, Change from Baseline, Minimum ([3]; Week 3): −6.0
Nocturnal Awakenings due to Hot Flashes, Observed Value, 25th Percentile ([3]; Week 3): 0.0
Nocturnal Awakenings due to Hot Flashes, Observed Value, 75th Percentile ([3]; Week 3): 1.0
Nocturnal Awakenings due to Hot Flashes, Observed Value, Maximum ([3]; Week 3): 3.0
Nocturnal Awakenings due to Hot Flashes, Observed Value, Mean (SD) ([3]; Week 3): 0.5 (0.7)
Nocturnal Awakenings due to Hot Flashes, Observed Value, Median ([3]; Week 3): 0.0
Nocturnal Awakenings due to Hot Flashes, Observed Value, Minimum ([3]; Week 3): 0.0
Nocturnal Awakenings due to Hot Flashes, Change from Baseline, Least Squares Means (SE) ([3]; Week 3): −0.6 (0.1)
Nocturnal Awakenings due to Hot Flashes, Observed Value, Least Squares Means (SE) ([3]; Week 3): 0.5 (0.1)
Nocturnal Awakenings due to Hot Flashes, Change from Baseline, 25th Percentile ([3]; Week 4): −1.3
Nocturnal Awakenings due to Hot Flashes, Change from Baseline, 75th Percentile ([3]; Week 4): 0.0
Nocturnal Awakenings due to Hot Flashes, Change from Baseline, Maximum ([3]; Week 4): 2.1
Nocturnal Awakenings due to Hot Flashes, Change from Baseline, Mean (SD) ([3]; Week 4): −0.8 (1.2)
Nocturnal Awakenings due to Hot Flashes, Change from Baseline, Median ([3]; Week 4): −0.7
Nocturnal Awakenings due to Hot Flashes, Change from Baseline, Minimum ([3]; Week 4): −6.0
Nocturnal Awakenings due to Hot Flashes, Observed Value, 25th Percentile ([3]; Week 4): 0.0
Nocturnal Awakenings due to Hot Flashes, Observed Value, 75th Percentile ([3]; Week 4): 1.0
Nocturnal Awakenings due to Hot Flashes, Observed Value, Maximum ([3]; Week 4): 3.6
Nocturnal Awakenings due to Hot Flashes, Observed Value, Mean (SD) ([3]; Week 4): 0.4 (0.7)
Nocturnal Awakenings due to Hot Flashes, Observed Value, Median ([3]; Week 4): 0.0
Nocturnal Awakenings due to Hot Flashes, Observed Value, Minimum ([3]; Week 4): 0.0
Nocturnal Awakenings due to Hot Flashes, Change from Baseline, Least Squares Means (SE) ([3]; Week 4): −0.7 (0.1)
Nocturnal Awakenings due to Hot Flashes, Observed Value, Least Squares Means (SE) ([3]; Week 4): 0.4 (0.1)
Physician Global Assessment, Change from Baseline, 25th Percentile [4]: −2.0
Physician Global Assessment, Change from Baseline, 75th Percentile [4]: 0.0
Physician Global Assessment, Change from Baseline, Maximum [4]: 6.0
Physician Global Assessment, Change from Baseline, Mean (SD) [4]: −1.0 (1.4)
Physician Global Assessment, Change from Baseline, Median [4]: −1.0
Physician Global Assessment, Change from Baseline, Minimum [4]: −4.0
Physician Global Assessment, Change from Baseline, Least Squares Means (SE) ([4]; ANCOVA): −0.9 (0.1)
Physician Global Assessment, Observed Value, Least Squares Means (SE) [4]: 2.7 (0.1)
Physician Global Assessment, Observed Value, Least Squares Means (SE) ([4]; listed as ESZ): 2.7
Physician Global Assessment, Observed Value, 25th Percentile [4, 6]: 2.0
Physician Global Assessment, Observed Value, 75th Percentile [4, 6]: 4.0
Physician Global Assessment, Observed Value, Maximum [4, 6]: 6.0
Physician Global Assessment, Observed Value, Mean (SD) [4, 6]: 2.6 (1.2)
Physician Global Assessment, Observed Value, Median [4, 6]: 2.0
Physician Global Assessment, Observed Value, Minimum [4, 6]: 1.0

Fc1ccc(C(OCCN2CCN(CCCc3ccccc3)CC2)c2ccc(F)cc2)cc1 [GBR 12909]
inhibition of 5-HT uptake [5]: — (— <50% inhibition)
inhibition of NE uptake ([2]; Table 6, tested initially at 10 μM): — (— <50% inhibition)

N[C@@H]1CC[C@@H](c2ccc(Cl)c(Cl)c2)c2ccccc21 [P, (1R,4S)-trans 4-(3,4-dichlorophenyl)-1,2,3,4-tetrahydro-1-napthalenamine]
Immobility Duration, individual mice (mice; 0.03 mg/kg intraperitoneal): 129 s and 99 s and 107 s and 159 s and 102 s and 115 s and 122 s and 128 s and 120 s and 96 s
Immobility Duration, Mean (mice; 0.03 mg/kg intraperitoneal): 118 s
Immobility Duration, individual mice (mice; 0.1 mg/kg intraperitoneal): 100 s and 103 s and 76 s and 109 s and 56 s and 98 s and 62 s and 119 s and 96 s and 85 s
Immobility Duration, Mean (mice; 0.1 mg/kg intraperitoneal): 90 s
Immobility Duration, individual mice (mice; 0.3 mg/kg intraperitoneal): 93 s and 23 s and 102 s and 110 s and 106 s and 98 s and 120 s and 114 s and 109 s and 115 s
Immobility Duration, Mean (mice; 0.3 mg/kg intraperitoneal): 99 s
Immobility Duration, individual mice (mice; 1 mg/kg intraperitoneal): 34 sec and 51 sec (2×) and 35 sec and 19 sec and 81 sec and 50 sec and 29 sec and 66 sec and 87 sec
Immobility Duration, Mean (mice; 1 mg/kg intraperitoneal): 50 s
Immobility Duration, individual mice (mice; 3 mg/kg intraperitoneal): 3 sec and 17 sec and 5 sec and 0 sec (3×) and 40 sec and 26 sec and 12 sec and 49 sec
Immobility Duration, Mean (mice; 3 mg/kg intraperitoneal): 15 s

CN(C)CCCN1c2ccccc2CCc2ccccc21 [imipramine]
inhibition of DA uptake ([1]; Table 6): — (— <50% inhibition)
inhibition at 10 µM ([1]; read-out: inhibition of DA uptake): < 50%
inhibition at 10 µM ([2]; read-out: inhibition of NE uptake): < 50%
Immobility Duration, individual mice (mice; 10 mg/kg): 89 s and 85 s and 73 s and 37 s and 74 s and 95 s and 5 s and 33 s
Immobility Duration, Mean (mice; 10 mg/kg): 58 s

CNCCCC1c2ccccc2C=Cc2ccccc21 [protriptyline]
inhibition of DA uptake ([1]; Table 6): — (— <50% inhibition)
